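Growth conditions: 96-well plates. Treatment: test compound, 48 hours, 5 concentrations. Analysis: linear interpolation between bracketing concentrations; unreached endpoints set to highest concentration. GI50 is the concentration that inhibits growth by half.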 Calls of active or inactive are those of the source. No stated cut-off is given here; in the data, active = GI50 up to about 1.1 µM and inactive = higher.
How the values were obtained:
Experiment in all cases: growth of human tumour cells (NCI), 48 h
A498 = tested on: A498
ACHN = tested on: ACHN
HL-60 = tested on: HL-60
HOP-62 = tested on: HOP-62
HT-29 = tested on: HT-29
IGROV-1 = tested on: IGROV-1
LOX IMVI = tested on: LOX IMVI
LXFL 529 = tested on: LXFL 529
MOLT-4 = tested on: MOLT-4
NCI-H226 = tested on: NCI-H226
RPMI-8226 = tested on: RPMI-8226
SF-539 = tested on: SF-539
SK-MEL-28 = tested on: SK-MEL-28
SK-MEL-2 = tested on: SK-MEL-2
UACC-257 = tested on: UACC-257
UACC-62 = tested on: UACC-62
OVCAR-3 = tested on: OVCAR-3

Measured: GI50

CC(=O)NNc1nc(C)c(C(/C=C/c2ccc(Cl)cc2)=N/NC(=S)NN)s1
inactive: A498 > 100 µM | ACHN > 100 µM | HL-60 > 100 µM | HOP-62 > 100 µM | HT-29 > 100 µM | IGROV-1 > 100 µM | LOX IMVI > 100 µM | LXFL 529 > 100 µM | MOLT-4 > 100 µM | NCI-H226 > 100 µM | RPMI-8226 > 100 µM | SF-539 > 100 µM | SK-MEL-28 > 100 µM | SK-MEL-2 > 100 µM | UACC-257 > 100 µM | UACC-62 > 100 µM

CN(C)/N=N/c1ccc(C(N)=O)cc1
inactive: A498 > 100 µM | ACHN > 100 µM | HL-60 > 100 µM | HOP-62 > 100 µM | HT-29 > 100 µM | IGROV-1 > 100 µM | LOX IMVI > 100 µM | LXFL 529 > 100 µM | MOLT-4 > 100 µM | NCI-H226 > 100 µM | OVCAR-3 > 100 µM | RPMI-8226 > 100 µM | SF-539 > 100 µM | SK-MEL-28 > 100 µM | SK-MEL-2 > 100 µM | UACC-257 > 100 µM | UACC-62 > 100 µM

COC(=O)/C(=N\NC(N)=S)C(C(=O)OC)C(=O)C(=O)Nc1ccc(C)cc1 (centres undefined)
inactive: A498 > 100 µM | ACHN > 100 µM | HL-60 > 100 µM | HOP-62 > 100 µM | HT-29 > 100 µM | IGROV-1 > 100 µM | LOX IMVI > 100 µM | LXFL 529 > 100 µM | MOLT-4 > 100 µM | NCI-H226 > 100 µM | OVCAR-3 > 100 µM | RPMI-8226 > 100 µM | SF-539 > 100 µM | SK-MEL-28 > 100 µM | SK-MEL-2 > 100 µM | UACC-257 > 100 µM | UACC-62 > 100 µM

CC(C)=CC(=O)Cc1nc2cc(C)c(C)cc2[nH]c1=O
inactive: A498 > 100 µM | ACHN > 100 µM | HL-60 > 100 µM | HOP-62 17.9 µM | HT-29 > 100 µM | IGROV-1 > 100 µM | LOX IMVI > 100 µM | LXFL 529 > 100 µM | MOLT-4 > 100 µM | NCI-H226 > 100 µM | OVCAR-3 > 100 µM | RPMI-8226 > 100 µM | SF-539 > 100 µM | SK-MEL-28 > 100 µM | SK-MEL-2 > 100 µM | UACC-257 > 100 µM | UACC-62 > 100 µM

CC(Oc1ccc(OCC2CCCCC2)cc1)C(=O)NCCO (centres undefined)
inactive: A498 48 µM | ACHN > 100 µM | HL-60 > 100 µM | HT-29 99.3 µM | IGROV-1 > 100 µM | LOX IMVI 26.7 µM | LXFL 529 > 100 µM | MOLT-4 > 100 µM | NCI-H226 > 100 µM | OVCAR-3 64.9 µM | SF-539 > 100 µM | SK-MEL-28 > 100 µM | SK-MEL-2 > 100 µM | UACC-257 49.7 µM | UACC-62 > 100 µM

O=c1c2cccc3cccc(c4n1CCCN=4)c32
inactive: A498 > 100 µM | ACHN > 100 µM | HL-60 47.5 µM | HOP-62 > 100 µM | HT-29 > 100 µM | IGROV-1 > 100 µM | LOX IMVI 20.1 µM | LXFL 529 > 100 µM | MOLT-4 35.7 µM | NCI-H226 > 100 µM | OVCAR-3 > 100 µM | RPMI-8226 > 100 µM | SF-539 > 100 µM | SK-MEL-28 > 100 µM | SK-MEL-2 > 100 µM | UACC-257 > 100 µM | UACC-62 > 100 µM

CC1=NN(C(=O)c2ccc(Cl)cc2)C(=O)/C1=C/c1ccc(Cl)cc1
inactive: A498 > 100 µM | ACHN > 100 µM | HL-60 > 100 µM | HOP-62 > 100 µM | HT-29 > 100 µM | IGROV-1 > 100 µM | LOX IMVI > 100 µM | LXFL 529 > 100 µM | MOLT-4 > 100 µM | OVCAR-3 > 100 µM | RPMI-8226 > 100 µM | SF-539 > 100 µM | SK-MEL-28 > 100 µM | SK-MEL-2 > 100 µM | UACC-257 > 100 µM | UACC-62 > 100 µM

CCN(CC)CCNC(=O)c1cccc2nc3ccccc3nc12
inactive: A498 11.7 µM | ACHN 5.06 µM | HOP-62 13.2 µM | HT-29 4.55 µM | IGROV-1 38.3 µM | LOX IMVI 4.4 µM | LXFL 529 16.9 µM | MOLT-4 4.91 µM | NCI-H226 8.15 µM | OVCAR-3 8.34 µM | RPMI-8226 7.64 µM | SF-539 8.45 µM | SK-MEL-28 17.5 µM | SK-MEL-2 13.3 µM | UACC-257 7.26 µM | UACC-62 18.9 µM

CC(=O)C1=CSC2[C@H](NC(=O)Cc3ccccc3)C(=O)N2C1C(=O)OC(c1ccccc1)c1ccccc1 (some centres undefined)
inactive: A498 > 100 µM | HL-60 35.2 µM | HOP-62 58.6 µM | HT-29 > 100 µM | IGROV-1 > 100 µM | LXFL 529 > 100 µM | MOLT-4 35.8 µM | NCI-H226 > 100 µM | OVCAR-3 > 100 µM | RPMI-8226 39.5 µM | SF-539 > 100 µM | SK-MEL-28 > 100 µM | SK-MEL-2 > 100 µM | UACC-257 > 100 µM | UACC-62 30.1 µM

CCOC(=O)NC(=O)c1cn(CCN2CCN(C(=O)CCCCCCCCCCNc3ncnc4c3ncn4C3OC(CO)C(O)C3O)CC2)c(=O)[nH]c1=O (centres undefined)
inactive: A498 > 100 µM | ACHN > 100 µM | HL-60 > 100 µM | HOP-62 > 100 µM | HT-29 > 100 µM | IGROV-1 > 100 µM | LOX IMVI > 100 µM | LXFL 529 > 100 µM | MOLT-4 > 100 µM | SK-MEL-28 > 100 µM | SK-MEL-2 > 100 µM | UACC-257 > 100 µM | UACC-62 > 100 µM

CC1OC(=O)N(CCCC=C2SCCCS2)C1=O (centres undefined)
inactive: A498 > 100 µM | ACHN > 100 µM | HT-29 > 100 µM | IGROV-1 > 100 µM | LOX IMVI > 100 µM | LXFL 529 > 100 µM | MOLT-4 > 100 µM | NCI-H226 > 100 µM | OVCAR-3 > 100 µM | RPMI-8226 > 100 µM | SF-539 > 100 µM | SK-MEL-28 > 100 µM | SK-MEL-2 > 100 µM | UACC-257 > 100 µM | UACC-62 > 100 µM

COc1ccc(/C=N\O[Si](C)(C)C(C)(C)C)cc1O[Si](C)(C)C(C)(C)C
inactive: A498 16.7 µM | ACHN 18 µM | HL-60 19.6 µM | HOP-62 20.2 µM | HT-29 17.7 µM | IGROV-1 18.9 µM | LOX IMVI 20 µM | LXFL 529 16.1 µM | MOLT-4 17.4 µM | OVCAR-3 17.1 µM | RPMI-8226 17.9 µM | SF-539 18.5 µM | SK-MEL-2 16.5 µM | UACC-257 20.8 µM | UACC-62 18.8 µM

— ChEMBL document CHEMBL1201862, “PubChem BioAssay data set” (2004)
